One data set relates to SH-SY5Y cells. Particulars: cited from earlier work.
Data set [1] concerns (d)-SH-SY5Y cells. The experiment in a line: Cell viability (MTT), H2O2 alone or co-treatment with H2O2 and drugs. The conditions noted are these: for cell viability compared to H2O2 alone: 10 μM drug + 250 µM H2O2, 24 h. The procedure:
(§1) Cells were cultured under standard conditions and used for experiments between passages 5 and 20 to maintain phenotypic consistency and avoid passage-related variability. To ensure the validity of the experimental data and avoid confounding effects, the cell line was routinely tested for Mycoplasma contamination using a PCR-based Mycoplasma detection kit (MycoFluor™ Mycoplasma Detection Kit, Thermo Fisher Scientific). […] Differentiated cells were plated at 1.0 × 10^4 cell/cm^2 confluency and treated with retinoic acid (RA) (R2625-50MG, Sigma Aldrich) at a 10 µM concentration in DMEM/F12 1% FBS for 6 days with RA pulses on every other day. The (d)-SH-SY5Y cells with acquired neuronal properties were used in our experiments involving toxin application and drug treatments.
(§2) (d)-SH-SY5Y cells were cultured in collagen-coated 96-well plates (1.0 × 10^4 cell/well). […] The appropriate dose and time for H2O2 used in our study were determined according to the findings obtained in a preliminary study. Data are expressed as a percentage of cell viability compared to control cultures.

The next data set concerns cleaved caspase-3. The experiment in a line: Cleaved caspase-3 ELISA in H2O2-treated cells. It is filed as cell-based, human. Particulars: 250 μM H2O2 alone (vs untreated) or with CNI (vs H2O2 alone), 24 h, n = 2. The procedure:
The quantification of cleaved caspase-3 levels in cell lysates was performed using a commercially available human cleaved caspase-3 ELISA kit (E6970HU, BT Lab), according to the manufacturer’s instructions. SH-SY5Y cells were seeded in collagen-coated 6-well plates (1.0 × 10^5 cell/well) and differentiated. Cells were exposed to 250 μM H2O2 in the presence or absence of CNI compounds for 24 h. Following treatment, cells were collected, diluted with PBS, and destroyed by multiple freeze–thaw cycles, both treated and untreated. The levels of cleaved caspase-3 in the cell lysates were measured in the order recommended by the manufacturer. The BCA assay (44,132, Expedeon) was used to compare the total protein contents in treated and untreated cells.

The subject of a further data set is AChE mRNA. The experiment in a line: AChE mRNA expression by qRT-PCR. It is filed as cell-based. Particulars: 250 µM H2O2 alone (vs control) or with 0.1 µM drug (vs H2O2 alone), 24 h, 2^−ΔΔCt, GAPDH. The procedure:
SH-SY5Y cells were cultivated on collagen-coated 6-well plates at a density of 1.0 × 10^5 cells/well. […]. The purity and concentration of the isolated RNA were assessed by measuring absorbance at 260 nm and 280 nm. cDNA was synthesized from 1 μg of total RNA using the OneScript Plus cDNA Synthesis Kit (G236, Abmgood). Subsequent to cDNA synthesis, quantitative real-time PCR (qRT-PCR) was conducted on a Roche Light Cycler 96 real-time PCR System utilizing the SYBR Green PCR Kit BlasTaq 2X qPCR MasterMix (G891, Abmgood) according to established protocols. All amplification reactions for each sample were performed in triplicate, and the experiments were repeated at least three times. The relative mRNA expression levels were quantified using the 2^−ΔΔCt method, normalizing the data against glyceraldehyde-3-phosphate dehydrogenase (GAPDH). Primer sequences are listed as follows: GAPDH forward, 5′-[…]-3′ and reverse, 5′-[…]-3′; AChE forward, 5′-[…]-3′ and reverse, 5′-[…]-3′.

The test system of data set [2] is (d)-SH-SY5Y cells. As to the kind of experiment: Neurite analysis by microscopy (NeuronJ/ImageJ). Format: cell-based, human. Particulars: 250 µM H2O2 alone or with 0.1 µM drug. The procedure: SH-SY5Y cells were cultivated on collagen-coated 6-well plates at a density of 1.0 × 10^5 cells/well. Following the differentiation and treatments, microscopic examination of the cell groups was assessed using an inverted microscope (Zeiss Axio) at × 20 objective. Images were taken with multiple independent images for an individual treatment. Images were analyzed for neurite lengths and the number of homogeneous neurites per cell by NeuronJ of ImageJ software; soma size was determined by the Neurphology plugin of ImageJ [46]. Cells with cell extensions longer than twice the cell body diameter were considered neurite-bearing cells. 100 cells were counted from 10 different areas selected to determine neurite density (number of neurites per cell) and neurite length for each sample. The data were expressed as the mean ± SEM from three independent experiments.

In data set [3] the target is T1, AChE (Homo sapiens, UniProt P22303). As to the kind of experiment: Cellular AChE activity (ELISA). It is filed as cell-based. Also on record: To extract the total protein from the treated (d)-SH-SY5Y cells; endogenous in cells; host or cells: differentiated SH-SY5Y (human neuroblastoma). Particulars: (d)-SH-SY5Y. The procedure:
SH-SY5Y cells were cultivated on collagen-coated 6-well plates at a density of 1.0 × 10^5 cells/well. […] To extract the total protein from the treated (d)-SH-SY5Y cells, the cultures were rinsed twice with cold phosphate-buffered saline (PBS), followed by scraping to collect the cells. The resulting cell suspension was transferred to 1.5 mL tubes, which were then centrifuged at 10,000 × g for 5 min at 4 °C. The supernatant was carefully discarded, and the cell pellets were lysed using RIPA buffer. The total protein concentration present in the extracts was quantified using the Bicinchoninic Acid (BCA) assay. Any remaining protein was stored at − 80 °C until the time of enzymatic analysis. Relative AChE activity was determined using an equal amount of total protein and employing an Enzyme-Linked Immunosorbent Assay (ELISA) (Human AchE (Acetylcholinesterase) Kit, ELK4614-96 T), following the manufacturer’s guidelines.

The target in data set [4] is T1, AChE. The experiment in a line: biochemical. The procedure: The inhibition of AChE activity in vitro was evaluated following the methodology outlined by Ellman et al., with some modifications implemented. […] The enzyme activity was expressed as a percentage relative to a control assay conducted without any inhibitor. The percentage inhibition of AChE activity was determined by comparing the absorbance values with those of the negative control, using the following equation:
AChE inhibition % = ((A0 − A1)/A0) × 100.
In this equation, A0 represents the absorbance of the control lacking the sample, while A1 indicates the absorbance of the sample tested.
Dose–response curves were generated and analyzed using GraphPad Prism version 8.0, applying a sigmoidal dose–response model with variable slope (four-parameter logistic regression). IC50 values were derived from the fitted curves and are expressed in micromolar (µM).

Data set [5] concerns (d)-SH-SY5Y cells. As to the kind of experiment: Cell viability (MTT), drugs alone. Particulars: 0.01–10 μM, (d)-SH-SY5Y, no oxidative stress. The procedure: as §1, §2
Data set [6] in a line: Cell viability (MTT), drugs alone. The conditions noted are these: human. The procedure:
as §1, §2

The mark [7] stands for this setting: 0.1 μM drug + 250 µM H2O2, 24 h, vs H2O2 alone.

Structures are written as SMILES. Values joined by “and” are separate entries in the source; they are usually repeats but may differ in a detail not shown here. Equal entries are not always repeated. “Also recorded” adds a separate entry of the source. Where two headings read alike, the source gives them in different places. Bounds are passed on as bounds.

T1 sequence (P22303 32-614): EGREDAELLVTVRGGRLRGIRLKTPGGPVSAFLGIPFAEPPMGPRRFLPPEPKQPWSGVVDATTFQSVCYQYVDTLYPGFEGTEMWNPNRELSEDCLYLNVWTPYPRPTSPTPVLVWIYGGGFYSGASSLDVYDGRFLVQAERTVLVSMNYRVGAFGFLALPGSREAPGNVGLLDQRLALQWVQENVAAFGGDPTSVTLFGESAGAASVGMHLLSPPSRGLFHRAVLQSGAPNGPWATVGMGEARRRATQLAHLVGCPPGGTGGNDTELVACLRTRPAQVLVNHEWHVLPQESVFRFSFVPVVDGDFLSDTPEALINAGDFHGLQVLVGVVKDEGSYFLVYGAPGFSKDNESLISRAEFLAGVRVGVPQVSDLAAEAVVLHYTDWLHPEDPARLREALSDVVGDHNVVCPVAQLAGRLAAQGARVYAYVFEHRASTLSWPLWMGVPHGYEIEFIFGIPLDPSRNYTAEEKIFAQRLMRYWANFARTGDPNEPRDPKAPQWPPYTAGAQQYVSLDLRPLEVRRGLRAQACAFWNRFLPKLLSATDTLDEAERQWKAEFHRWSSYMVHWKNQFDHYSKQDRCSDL

Consider `COc1ccc2c3c1O[C@H]1C[C@@H](O)C=C[C@@]31CCN(C)C2` [Gal, Galantamine], for which, in the data set with SH-SY5Y cells (1.25 mg/mL), the reduction in viability is 17%. Besides, in the data set on SH-SY5Y cells, the cytotoxic concentration (CC50) is around 5000 µM, the “concentrations at which cell viability remained comparable to controls” value is recorded as “up to 10 μM” and the “concentrations with significant reductions in viability” value is at least 100 µM. Further, the “concentrations with no cytotoxic effect” value in the data set with SH-SY5Y cells (differentiated SH-SY5Y cells) is “up to 50 μM”.

Regarding `OO` [H2O2], the average cell viability in the data set with (d)-SH-SY5Y cells [1] (250 µM H2O2 alone, 24 h, compared to the control group) came out at 57.8 ± 5%. For the same compound, in the data set with cleaved caspase-3, the caspase-3 levels result is given as “significant increase in caspase-3 levels”. Besides, in the data set on AChE mRNA, the “AChE mRNA expression” value is “significant upregulation of AChE mRNA expression”. Further, in the data set on (d)-SH-SY5Y cells [2], the “Neurite index (neurite/cell)” value was 0.8 ± 0.2 neurite/cell and 0.8 ± 0.2*^p=0.001 neurite/cell; the Neurite length is 39.6 ± 6.3 μm and 39.6 ± 6.3*^p=0.001 μm. The “increase of AChE activity compared to the control” value on AChE [3] (250 μM H2O2 alone, 24 h) was 1.45 fold.

For the compound `CC[C@@H]1/C=C(\C)C[C@H](C)C[C@H](OC)[C@H]2O[C@@](O)(C(=O)C(=O)N3CCCC[C@H]3C(=O)O[C@H](/C(C)=C/[C@@H]3CC[C@H](Cl)[C@H](OC)C3)[C@H](C)[C@@H](O)CC1=O)[C@H](C)C[C@@H]2OC` [Pim, Pimecrolimus], the “protective effect on cell viability against H2O2” value (from here on “protective effect”) in the data set with (d)-SH-SY5Y cells [1] (1 µM drug + 250 µM H2O2, 24 h) was “best protected cell viability”. Moreover, the caspase-3 levels result in the data set with cleaved caspase-3 is “significantly attenuated this increase”. For the same compound, the “AChE mRNA expression” value with AChE mRNA was “significantly reduced AChE mRNA levels”. The same compound gave an IC50 against AChE [4] of 2.15 ± 0.1 µM. Besides, in the data set on (d)-SH-SY5Y cells [2], the “Neurite index (neurite/cell)” value is 1.1 ± 0.3 neurite/cell and the Neurite length was 39.8 ± 5.7 μm. Also, in the data set with (d)-SH-SY5Y cells [5], the “cytotoxicity of drug alone” value is “did not show detectable cytotoxicity”.

In the case of `C=CC[C@@H]1/C=C(\C)C[C@H](C)C[C@H](OC)[C@H]2O[C@@](O)(C(=O)C(=O)N3CCCC[C@H]3C(=O)O[C@H](/C(C)=C/[C@@H]3CC[C@@H](O)[C@H](OC)C3)[C@H](C)[C@@H](O)CC1=O)[C@H](C)C[C@@H]2OC` [Tac, Tacrolimus], in the data set with (d)-SH-SY5Y cells [1] (setting [7]), the “protective effect” value was “not statistically significant”. Moreover, in the data set with (d)-SH-SY5Y cells [1], the “cell viability compared to H2O2 alone” value is “significantly reduced cell viability”. For the same compound, the caspase-3 levels result in the data set on cleaved caspase-3 is on record as “did not significantly modulate caspase-3 expression”. Further, in the data set on AChE mRNA, the “AChE mRNA expression” value is “significantly reduced AChE mRNA levels”. In addition, at AChE [4], the IC50 was 4.24 ± 0.1 µM. Moreover, in the data set with (d)-SH-SY5Y cells [2], the “Neurite index (neurite/cell)” value is 1.2 ± 0.1 neurite/cell and the Neurite length worked out at 34.5 ± 3.5 μm. In data set [6], this compound came in with a viability at 24 h, 1 µM of 55.2 ± 2.5% and a viability at 24 h, 10 µM of 50.1 ± 2%.

On to `C=C/C=C/C[C@@H](C)[C@@H](O)[C@H]1C(=O)N[C@@H](CC)C(=O)N(C)CC(=O)N(C)[C@@H](CC(C)C)C(=O)N[C@@H](C(C)C)C(=O)N(C)[C@@H](CC(C)C)C(=O)N[C@@H](C)C(=O)N[C@H](C)C(=O)N(C)[C@@H](CC(C)C)C(=O)N(C)[C@@H](CC(C)C)C(=O)N(C)[C@@H](C(C)C)C(=O)N1C` [Voc, Voclosporin], for which, in the data set on (d)-SH-SY5Y cells [1] (setting [7]), the “protective effect” value is on record as “significantly increasing cell viability compared to the H2O2-only group”. In the data set on (d)-SH-SY5Y cells [1], the “cell viability compared to H2O2 alone” value was “further decrease in cell viability; also recorded: significantly reduced cell viability”. Further, the caspase-3 levels result in the data set on cleaved caspase-3 was “significantly attenuated this increase”. Also, in the data set on AChE mRNA, the “AChE mRNA expression” value is on record as “significantly reduced AChE mRNA levels”. The “AChE inhibitory effect compared to galantamine” value at AChE [4] (0.01 µM) is recorded as “higher AChE inhibitory effect compared to galantamine”. The IC50 at AChE [4] (read-out: IC50 against AChE, recombinant human AChE, Ellman method, 0.01–10 µM, four-parameter fit) worked out at 0.004 ± 0.0002 µM. In addition, in the data set on (d)-SH-SY5Y cells [2], the “Neurite index (neurite/cell)” value is 1.3 ± 0.3^#p=0.02 neurite/cell and the Neurite length is on record as 45.4 ± 5.5^#p=0.04 μm. In data set [6], this compound returned a viability at 24 h, 1 µM of 75.5 ± 4.8% and a viability at 24 h, 10 µM of 62.1 ± 3.6%. At AChE [3] (0.1 μM drug + 250 μM H2O2, 24 h), the AChE activity was 96.3 ± 2.3%.
